Converted amounts (≈) assume the structure as drawn. Like-named read-outs stand apart in the source and are kept apart here. Bounds are passed on as bounds.

The test system of series [1] is HBV replication in HepG2.2.15 cells. Put plainly: Anti-HBV activity in vitro in HepG2.2.15 cells (extracellular HBV DNA by qPCR). The following applies: Hepatitis B virus, HepG2.2.15, Anti-HBV activity in HepG2.2.15 cells; read-out: EC50. The series is classed as cell-based. Put shortly:
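EC50 is derived from qPCR of extracellular viral DNA in culture supernatant after 5-day compound exposure. Cells (HepG2.2.15, stably carrying the HBV genome) were plated and incubated overnight at 37 °C before half-log dilution series were added at 0.5% final DMSO.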

For series [2], the system named is CYP3A4. The following applies: human, 24 h.
Description: Human cryopreserved hepatocytes (Life Technologies, Carlsbad, USA) were thawed and cultured in collagen I coated 96-well plates with a density of 52,000 cells/well. After attachment, medium was changed and cells were pre-cultured overnight in hepatocyte maintenance medium (HMM; Lonza, Switzerland).
Test compounds were dosed to the cells next morning at an indicated concentration (up to 10 μM) in HMM culture media containing gentamycin and a constant 0.1% DMSO. Similarly, dilutions of the positive inducer compounds omeprazole (prototypical inducer of human CYP1A2; final concentrations: 1 and 10 μM), phenobarbital (prototypical inducer of human CYP2B6; final concentrations: 100 and 1000 μM) and rifampicin (prototypical inducer of human CYP3A4; final concentrations: 1 and 10 μM) were prepared from 1000 fold DMSO stock solutions in HMM containing gentamycin. Medium change was then performed and cells were exposed for 24 hours to test compounds, positive inducer compounds, or vehicle (0.1% DMSO), respectively.
At the end of the compound exposure period, medium was removed and cells lysed using 100 μL/well MagNA Pure LC RNA isolation tissue lysis buffer (Roche Diagnostics AG, Rotkreuz, Switzerland). Plates were then sealed and frozen at −80° C. until further workup.
mRNA isolation was performed using the MagNA Pure 96 system (Roche Diagnostics AG, Rotkreuz, Switzerland) and the respective cellular RNA large volume kit (Roche Diagnostics AG, Rotkreuz, Switzerland) from thawed samples diluted 1:1 with PBS. The volume of the cell lysis and an elution volume of 100 μL were used. 20 μL of the resulting mRNA suspension was then used for reverse transcription using 20 μL of the transcript or first stand cDNA synthesis kit (Roche prime Supply, Mannheim, Germany). The resulting cDNA was diluted with 40 μL of H2O before using for qRT-PCR. qRT-PCR was performed by using the forward and the reverse primer, the corresponding UPL (all from Microsynth, Balgach, Switzerland) and the Taqman Fast advanced master mix (Applied Biosystems), on an ABI 7900 machine (Applied Biosystems).
qRT-PCR Ct-values for the respective P450s were put into relation to the Ct-value of RN18S1 (microsynth, Balgach, Switzerland) of the same sample. Doing so, a respective Δct-value was calculated. Using the average of all Δct-values for the vehicle control samples, a ΔΔct-value was calculated for each sample (ΔΔct-value(sample)=Δct-value(sample)−average of Δct-value of all vehicle controls). The fold induction of the respective sample was calculated as 2^(−ΔΔct). The individual fold induction values were then averaged per treatment condition (usually n=3 biological replicates).
Relative induction values to the respective positive inducer compound condition (10 μM omeprazole for CYP1A2; 1000 μM Phenobarbital for CYP2B6; 10 μM rifampicin for CYP3A4) were then calculated from the fold induction values as follows: Relative induction(%)=100×(T−V)/(P−V)
T: fold induction of test compound condition
P: fold induction of positive inducer compound
V: fold induction of vehicle controls
Series [3] is described as follows: Human microsomal clearance assay. The series is classed as in vitro ADME. In short, it runs like this: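 Liver microsomes (0.5 mg/mL protein) were incubated with 1 μM compound at 37 °C, pH 7.4 phosphate, with an NADPH-regenerating system. Samples at 0-30 min were quenched and measured by LC-MS/MS for parent loss. No-NADPH controls were included.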
The nature of series [4]: Lyophilisation solubility assay (Lysa). To be noted: thermodynamic from solid. The class given is physicochemical. In short, it runs like this: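 DMSO was evaporated from 10 mM stocks, and residues were taken up in 0.05 M phosphate buffer pH 6.5, stirred 1 h, shaken 2 h and left overnight. Filtrates were quantified by UV or HPLC-UV against a four-point calibration, in duplicate. Values are in μg/ml, with a lower-bound value when >80% dissolved.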

The nature of series [5]: Cytotoxicity (CCK-8 cell viability) and selectivity index. The following applies: human, HepDE19 cells; cytotoxicity, concentration resulting in death of 50% of host cells. The series is classed as cell-based, human. In short, it runs like this: (§1)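 HepDE19 cells (5×10^3/well) were treated with compounds as for the EC50 runs and, after 5 days, given CCK-8 for 2 h at 37° C. Absorbance was read at OD450 and OD630, and CC50 was taken as the concentration killing 50% of host cells.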

For series [6], the system named is HepDE19 cells. The series is described as above. To be noted: CC50 value/EC50 value. The class given is cell-based, human. In short, it runs like this:
as §1

Regarding `COC(=O)C1=C(CN2C3COCC2c2cn[nH]c2C3)NC(c2nccs2)=N[C@H]1c1ccc(F)cc1Cl` (stereo partly drawn) [Example 31, (R)-4-(2-Chloro-4-fluoro-phenyl)-6-(10-oxa-4,5,12-triaza-tricyclo[6.3.1.0*2,6*]dodeca-2(6),3-dien-12-ylmethyl)-2-thiazol-2-yl-1,4-dihydro-pyrimidine-5-carboxylic acid methyl ester], in series [1], the EC50 (in general, the concentration that produces a half-maximal response) was 35 nM. For the same compound, the “% of Positive control (10 μM Rifampicin)” value in series [2] is on record as 25%.
Regarding `COC(=O)C1=C(CN2C3COCC2C(NC(C)=O)C3)NC(c2nccs2)=N[C@H]1c1ccc(F)cc1Cl` (stereo partly drawn) [Example 48, Methyl (4R)-6-[(6-acetamido-3-oxa-8-azabicyclo[3.2.1]octan-8-yl)methyl]-4-(2-chloro-4-fluoro-phenyl)-2-thiazol-2-yl-1,4-dihydropyrimidine-5-carboxylate], in series [1], the EC50 is 19.4 nM. Also, the CLh in series [3] (human, 1 μM, pH 7.4) is 4.8 mL/min/kg. The solubility thermodynamic in series [4] (pH 6.5, aqueous buffer) came out at 100 µg/mL (≈ 187 µM). Further, the “% of Positive control (10 μM Rifampicin)” value in series [2] is 17%.
In the case of `COC(=O)C1=C(CN2[C@@H]3C[C@H](CC(=O)O)C[C@H]2C(F)(F)C3)NC(c2nccs2)=N[C@H]1c1ccccc1Cl` [Example 90, 2-[(1R,3S,5S)-8-[[(4R)-4-(2-chlorophenyl)-5-methoxycarbonyl-2-thiazol-2-yl-1,4-dihydropyrimidin-6-yl]methyl]-6,6-difluoro-8-azabicyclo[3.2.1]octan-3-yl]acetic acid], in series [1], the EC50 is 3.5 nM. In addition, the CLh in series [3] (human, 1 μM, pH 7.4) came to 1.5 mL/min/kg. Besides, in series [4] (pH 6.5, aqueous buffer), the solubility thermodynamic worked out at 230 µg/mL (≈ 417 µM). The “% of Positive control (10 μM Rifampicin)” value in series [2] is reported as 37%.
With `COC(=O)C1=C(CN2CC3CC(C2)O3)NC(c2nccs2)=N[C@H]1c1ccc(F)cc1Cl` [Example 38, (R)-4-(2-Chloro-4-fluoro-phenyl)-6-(6-oxa-3-aza-bicyclo[3.1.1]hept-3-ylmethyl)-2-thiazol-2-yl-1,4-dihydro-pyrimidine-5-carboxylic acid methyl ester], in series [1], the EC50 is 114 nM. Also, in series [2], the “% of Positive control (10 μM Rifampicin)” value came to 35%.
For the compound `CCOC(=O)C1=C(CN2[C@@H]3COC[C@H]2C[C@@H](CC(=O)O)C3)NC(c2nccs2)=N[C@H]1c1cccc(F)c1Cl` [Example 65, Endo-2-[(1S,5R)-9-[[(4R)-4-(2-chloro-3-fluoro-phenyl)-5-ethoxycarbonyl-2-thiazol-2-yl-1,4-dihydropyrimidin-6-yl]methyl]-3-oxa-9-azabicyclo[3.3.1]nonan-7-yl]acetic acid], in series [1], the EC50 came out at 11.8 nM. For the same compound, the CC50 (in general, the concentration at which the toxic effect on the cells reaches its halfway point) at 5 days in series [5] was found to be 71 µM. Moreover, the “Selectivity index (CC50/EC50)” value in series [6] is reported as 5980. The compound further returned a CLh in series [3] (human, 1 μM, pH 7.4) of 2.8 mL/min/kg. Moreover, the solubility thermodynamic in series [4] (pH 6.5, aqueous buffer) turned out to be 375 µg/mL (≈ 666 µM).
As to `COC(=O)C1=C(CN2[C@@H]3CC[C@@]2(C(=O)O)COC3)NC(c2nccs2)=N[C@H]1c1ccc(F)cc1Cl` [Example 82, (1R,5S)-8-[[(4R)-4-(2-chloro-4-fluoro-phenyl)-5-methoxycarbonyl-2-thiazol-2-yl-1,4-dihydropyrimidin-6-yl]methyl]-3-oxa-8-azabicyclo[3.2.1]octane-5-carboxylic acid], in series [1], the EC50 turned out to be 13.1 nM. In addition, the cytotoxic concentration (CC50) at 5 days in series [5] is greater than 100 µM. Also, the “Selectivity index (CC50/EC50)” value in series [6] was greater than 7634. In series [3] (human, 1 μM, pH 7.4), this compound displayed a CLh of 0 mL/min/kg. Moreover, the solubility thermodynamic in series [4] (pH 6.5, aqueous buffer) was greater than 628 µg/mL.
On the same counts, the results for `CCOC(=O)C1=C(CN2[C@@H]3COC[C@H]2C[C@H](CC(=O)O)C3)NC(c2nccs2)=N[C@H]1c1ccccc1Br` [Example 77, Exo-2-[(1S,5R)-9-[[(4R)-4-(2-bromophenyl)-5-ethoxycarbonyl-2-thiazol-2-yl-1,4-dihydropyrimidin-6-yl]methyl]-3-oxa-9-azabicyclo[3.3.1]nonan-7-yl]acetic acid] are 14 nM, greater than 100 µM, greater than 7143, 1.3 mL/min/kg and 491 µg/mL (≈ 833 µM).
In the case of `COC(=O)C1=C(CN2C3COCC2CN(C(N)=O)C3)NC(c2nccs2)=N[C@H]1c1ccc(F)cc1Br` [Example 54, Methyl (4R)-4-(2-bromo-4-fluoro-phenyl)-6-[(7-carbamoyl-3-oxa-7,9-diazabicyclo[3.3.1]nonan-9-yl)methyl]-2-thiazol-2-yl-1,4-dihydropyrimidine-5-carboxylate], in series [1], the EC50 is 8.2 nM. In series [5], this compound showed a CC50 at 5 days of 60 µM. The “Selectivity index (CC50/EC50)” value in series [6] is 7300. Besides, the CLh in series [3] (human, 1 μM, pH 7.4) is 6.5 mL/min/kg. In series [4] (pH 6.5, aqueous buffer), this compound registered a solubility thermodynamic of 119 µg/mL (≈ 205 µM).
Take `COC(=O)C1=C(CN2C3COCC2CN(C)C3)NC(c2nccs2)=N[C@H]1c1ccc(F)cc1Cl` [Example 12, (R)-4-(2-Chloro-4-fluoro-phenyl)-6-(7-methyl-3-oxa-7,9-diaza-bicyclo[3.3.1]non-9-ylmethyl)-2-thiazol-2-yl-1,4-dihydro-pyrimidine-5-carboxylic acid methyl ester]: in series [1], the EC50 is 566 nM. This compound also registered a solubility thermodynamic in series [4] (pH 6.5, aqueous buffer) greater than 597 µg/mL. Besides, the “% of Positive control (10 μM Rifampicin)” value in series [2] is recorded as 21%.
As to `COC(=O)C1=C(CN2[C@@H]3COC[C@H]2C[C@H](CC(=O)O)C3)NC(c2nccs2)=N[C@H]1c1ccc(F)cc1Br` [Example 58, 2-[(1S,5R)-9-[[(4R)-4-(2-bromo-4-fluoro-phenyl)-5-methoxycarbonyl-2-thiazol-2-yl-1,4-dihydropyrimidin-6-yl]methyl]-3-oxa-9-azabicyclo[3.3.1]nonan-7-yl]acetic acid], in series [1], the 50% effective concentration (EC50) is 11.4 nM. The cytotoxic concentration (CC50) at 5 days in series [5] is greater than 100 µM. The “Selectivity index (CC50/EC50)” value in series [6] is greater than 8772. In series [3] (human, 1 μM, pH 7.4), the CLh was 2.1 mL/min/kg. In series [4] (pH 6.5, aqueous buffer), this compound showed a solubility thermodynamic greater than 701 µg/mL.
As for `CCOC(=O)C1=C(CN2[C@@H]3COC[C@H]2C[C@H](CC(=O)O)C3)NC(c2nccs2)=N[C@H]1c1ccc(F)c(F)c1C` [Example 78, Exo-2-[(1S,5R)-9-[[(4S)-4-(3,4-difluoro-2-methyl-phenyl)-5-ethoxycarbonyl-2-thiazol-2-yl-1,4-dihydropyrimidin-6-yl]methyl]-3-oxa-9-azabicyclo[3.3.1]nonan-7-yl]acetic acid], the EC50 in series [1] amounted to 2 nM. Further, the CC50 at 5 days in series [5] was 73 µM. In series [6], the “Selectivity index (CC50/EC50)” value was determined as 36515. In series [3] (human, 1 μM, pH 7.4), this compound returned a CLh of 1.9 mL/min/kg. In series [4] (pH 6.5, aqueous buffer), this compound came in with a solubility thermodynamic of 111 µg/mL (≈ 198 µM).
As to `COC(=O)C1=C(CN2C3CC(F)(F)C2C[C@@](O)(CC(=O)O)C3)NC(c2nccs2)=N[C@@H]1c1ccc(F)c(F)c1C` (single isomer, unassigned) [Example 118], the EC50 in series [1] stood at 5 nM. Besides, in series [5], half-maximal cytotoxicity (CC50 at 5 days) was put at 45 µM. Also, in series [6], the “Selectivity index (CC50/EC50)” value stood at 8960. For the same compound, the CLh in series [3] (human, 1 μM, pH 7.4) came to 3.1 mL/min/kg. This compound also showed a solubility thermodynamic in series [4] (pH 6.5, aqueous buffer) of 112 µg/mL (≈ 192 µM).
Turning to `COC(=O)C1=C(CN2CC3(CO)CC2CO3)NC(c2nccs2)=N[C@H]1c1ccc(F)cc1Cl` (stereo partly shown) [Example 39], in series [1], the 50% effective concentration (EC50) amounted to 32 nM. The compound also had a cytotoxic concentration (CC50) at 5 days in series [5] greater than 100 µM. The “Selectivity index (CC50/EC50)” value in series [6] is given as greater than 5848. Moreover, in series [3] (human microsomal clearance), the CLh stood at 7.4 mL/min/kg. Also, the solubility thermodynamic in series [4] (aqueous buffer, 0.05 M phosphate buffer (pH 6.5), reported as bigger than the value if more than 80% of the sample is in solution, read-out: Lysa) is greater than 610 µg/mL.
With `COC(=O)C1=C(CN2C3CC(F)(F)C2C[C@@](O)(CC(=O)O)C3)NC(c2nccs2)=N[C@H]1c1cccc(F)c1Cl` (single isomer, unassigned) [Example 120], the concentration giving a half-maximal response (EC50) in series [1] came out at 9.6 nM. Besides, in series [5], the cytotoxic concentration (CC50) at 5 days was found to be 87 µM. Besides, the “Selectivity index (CC50/EC50)” value in series [6] stood at 9083. Also, the CLh in series [3] (human, 1 μM, pH 7.4) was determined as 0 mL/min/kg. In series [4] (pH 6.5, aqueous buffer), this compound returned a solubility thermodynamic of 317 µg/mL (≈ 542 µM).
The like results for `CCOC(=O)C1=C(CN2[C@@H]3COC[C@H]2C[C@H](CC(=O)O)C3)NC(c2nccs2)=N[C@H]1c1ccc(F)cc1Br` [Example 67, Exo-2-[(1S,5R)-9-[[(4R)-4-(2-bromo-4-fluoro-phenyl)-5-ethoxycarbonyl-2-thiazol-2-yl-1,4-dihydropyrimidin-6-yl]methyl]-3-oxa-9-azabicyclo[3.3.1]nonan-7-yl]acetic acid] were, in that order, 4 nM, greater than 100 µM, greater than 25000, 2.9 mL/min/kg and 319 µg/mL (≈ 525 µM).
On the same counts, the results for `COC(=O)C1=C(CN2[C@@H]3CC[C@@]2(C(=O)O)COC3)NC(c2nccs2)=N[C@H]1c1ccc(F)c(F)c1C` [Example 85, (1R,5S)-8-[[(4S)-4-(3,4-difluoro-2-methyl-phenyl)-5-methoxycarbonyl-2-thiazol-2-yl-1,4-dihydropyrimidin-6-yl]methyl]-3-oxa-8-azabicyclo[3.2.1]octane-5-carboxylic acid] are 6.6 nM, greater than 100 µM, greater than 15152, 1.3 mL/min/kg and greater than 639 µg/mL.

The record behind these values is patent publication US9266904B2, “6-bridged heteroaryldihydropyrimidines for the treatment and prophylaxis of hepatitis B virus infection” (priority 2013, dated 2016).
